Reference: PMC3462190, “A Peptidic Unconjugated GRP78/BiP Ligand Modulates the Unfolded Protein Response and Induces Prostate Cancer Cell Death” (PLoS ONE, 2012)
Where no end group is shown, it is not given here.

Tested on: GRP78/BiP
Experiment: GST pull-down with GRP78/BiP
Format: binding
Details: for interaction with GRP78/BiP: GST-fused protein/peptide, 22Rv.1 cell lysate, Western blot
Procedure: Expression of GST fusion proteins for GST-pull-down experiments were performed essentially as described previously.
Figure 1 Bag-1 proteins interact with the molecular chaperone GRP78/BiP. A. The Bag-1 family of proteins binds GRP78/BiP. GST pull-down assay was performed incubating 5 µg each of GST-fused Bag-1 proteins with 400 µg of 22Rv.1 cell lysate. Western blotting with a specific antibodiy against GRP78/BiP was used to detect the binding and an anti-GST antibody was used to determine the amount of bacterially purified protein employed in the assay. B. Bag-1 and GRP78 interact in vivo. GRP78 was immunoprecipitated with an anti-GRP78/BiP antibody or IgG as control in 22Rv.1 cells. Western blotting with an anti-Bag-1 and anti-GRP78 antibody was performed to determine GRP78-Bag-1 interaction. C. Bag-1 and GRP78/BiP show a perinuclear colocalization. Confocal microscopic analyses were carried out in 22Rv.1 cells that have been paraformaldehyde-fixed and stained with a Bag-1 antibody to detect Bag-1 (green channel) and a GRP78/BiP specific antibody to detect GRP78/BiP (red channel). The orange staining in the merge of the two channels indicates the degree of co-localization of the two proteins. All images (40X) were acquired with a Leica TCS SPE confocal microscope (Leica Microsystems; Scale bars indicate 25 µm). D. Diagrammatic representation of the domains of GRP78. E. Bag-1 binds to multiple sites on GRP78. GST-pull down assay performed incubating 500 µg lysate of HEK-293 cells transfected with an HA-tagged Bag-1 and 10 µg GST-fused GRP78 full length and its ATPase and substrate binding domain (SBD). Western blot analysis was carried out using an HA antibody to detect the Bag-1-tagged protein.
Figure 5 An N-terminal unfolded fragment of the Bag-1 peptide is sufficient to reduce tumor cell growth. A. Schematic diagram of the Bag-1 peptide and its deletion mutants. The ubiquitin-like domain is represented in blue and the BAG domain in red. The numbers refer to the amino acid positions of the different domains. The amino acid residues are numbered following the numbering for Bag-1L. B. Prediction of the secondary structure of the Bag-1 peptide, showing an N-terminal β-hairpin from the ubiquitin-like domain (blue) and a C-terminal α-helix from the BAG domain (red). C. Normalized circular dichroism spectra of the Bag-1 peptides. 30 µM of the Bag-1 peptide were measured in 20 mM KHPO4 buffer, pH 6.8 (black line). […] 12 µM of the N-term peptide (green line) and 11 µM of C-term (blue line) were measured under the same conditions. […] Cells transfected with the indicated constructs were selected in medium containing neomycin and the colonies formed were quantified. […] Tumor size was measured once per week using a caliper and expressed as tumor volume in mm^3. […]

Molecule | interaction with GRP78/BiP | interaction with full length GRP78/BiP (10 µg GST-fused GRP78 full length, lysate of HEK-293 cells expressing HA-tagged Bag-1)
C-terminal peptide: 28 C-terminal fragment of the Bag-1 peptide (Bag-1L 241–269) (EKIADQLEELNKELTGIQQGFLPKDLQAE; not fully specified) | not the C-terminal peptide bound to GRP78/BiP | 
N-terminal peptide: N-terminal 40 residues of the Bag-1 peptide (Bag-1L 202–241) (TPLSALGIQDGCRVMLIGKKNSPQEEVELKKLKHLEKSVE; not fully specified) | bound to GRP78/BiP | 
ΔUbi peptide: Bag-1 peptide lacking the ubiquitin-like domain portion (Bag-1L 220–269) (KKNSPQEEVELKKLKHLEKSVEKIADQLEELNKELTGIQQGFLPKDLQAE; not fully specified) | abrogated the binding to GRP78 | 
Bag-1: cochaperone Bag-1, HA-tagged (pcDNA3.1-HA-Bag-1), or endogenous (protein, left off: HA, end not stated, kept, cochaperone Bag-1, HA-tagged (pcDNA3.1-HA-Bag-1), or endogenous) TPLSALGIQDGCRVMLIGKKNSPQEEVELKKLKHLEKSVEKIADQLEELNKELTGIQQGFLPKDLQAE |  | interacted not only with the full length GRP78/BiP
